Assay results published in PubChem BioAssay AID330 (DTP/NCI, 2004).
Toxic doses and inconclusive results are not listed.

Test system: P388 leukemia ip, CD2F1 mice, survival T/C
Assay: NCI In Vivo Anticancer Drug Screen. Data for tumor model P388 Leukemia (intraperitoneal) in CD2F1 (CDF1) mice
Settings: endpoint: median survival time, higher = longer survival
Summary of the method: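 Mice carrying the transplanted tumor received test compound or vehicle. Survival was recorded in each group, and the value is the treated-group measurement divided by that of the vehicle-treated control group.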

[1] = dose: 50.0 mg/kg/injection, schedule: Q01DX009 (ip), vehicle: saline with Tween-80
[2] = dose: 100.0 mg/kg/injection, schedule: Q01DX009 (ip), vehicle: saline with Tween-80
[3] = dose: 200.0 mg/kg/injection, schedule: Q01DX009 (ip), vehicle: saline with Tween-80
[4] = dose: 60.0 mg/kg/injection, schedule: Q01DX005 (ip), vehicle: saline with Tween-80
[5] = dose: 120.0 mg/kg/injection, schedule: Q01DX005 (ip), vehicle: saline with Tween-80
[6] = dose: 240.0 mg/kg/injection, schedule: Q01DX005 (ip), vehicle: saline with Tween-80
[7] = dose: 50.0 mg/kg/injection, schedule: Q01DX005 (ip), vehicle: Klucel (hydroxypropylcellulose) (HPC)
[8] = dose: 100.0 mg/kg/injection, schedule: Q01DX005 (ip), vehicle: Klucel (hydroxypropylcellulose) (HPC)
[9] = dose: 200.0 mg/kg/injection, schedule: Q01DX005 (ip), vehicle: Klucel (hydroxypropylcellulose) (HPC)
[10] = dose: 60.0 mg/kg/injection, schedule: Q01DX005 (ip), vehicle: Klucel (hydroxypropylcellulose) (HPC)
[11] = dose: 120.0 mg/kg/injection, schedule: Q01DX005 (ip), vehicle: Klucel (hydroxypropylcellulose) (HPC)
[12] = dose: 240.0 mg/kg/injection, schedule: Q01DX005 (ip), vehicle: Klucel (hydroxypropylcellulose) (HPC)
[13] = dose: 6.25 mg/kg/injection, schedule: Q01DX009 (ip), vehicle: Klucel (hydroxypropylcellulose) (HPC)
[14] = dose: 12.5 mg/kg/injection, schedule: Q01DX009 (ip), vehicle: Klucel (hydroxypropylcellulose) (HPC)
[15] = dose: 25.0 mg/kg/injection, schedule: Q01DX009 (ip), vehicle: Klucel (hydroxypropylcellulose) (HPC)

## O=C(CC(=NCCN=C(CC(=O)c1ccccc1)c1ccccc1)c1ccccc1)c1ccccc1
[1]
  T/C: 112 % of control
[2]
  T/C: 100 % of control
[3]
  T/C: 100 % of control

## OCC(O)C(O)C(O)C(O)CO (configuration not stated)
dose: 400.0 mg/kg/injection, schedule: Q01DX009 (ip), vehicle: saline
  T/C: 107 % of control
dose: 1200.0 mg/kg/injection, schedule: Q01DX009 (ip), vehicle: saline
  T/C: 110 % of control
dose: 1600.0 mg/kg/injection, schedule: Q01DX005 (ip), vehicle: saline
  T/C: 106 % of control
dose: 2400.0 mg/kg/injection, schedule: Q01DX005 (ip), vehicle: saline
  T/C: 104 % of control

## CCOC(=O)c1c(C)n(C)c2c1nnc1ccccc12
[4]
  T/C: 98 % of control
[5]
  T/C: 90 % of control
[6]
  T/C: 86 % of control

## COc1ccc(-c2nc(N)nc(-c3nc(N)nc(-c4ccc(OC)cc4)c3-c3ccc(OC)cc3)c2-c2ccc(OC)cc2)cc1
[4]
  T/C: 96 % of control
[5]
  T/C: 96 % of control
[6]
  T/C: 99 % of control

## CCOC(=O)CC1(O)CCC2C3CC=C4CC(OC5CCCCO5)CCC4(C)C3CCC21C (configuration not stated)
dose: 3.0 mg/kg/injection, schedule: Q01DX009 (ip), vehicle: saline with Tween-80
  T/C: 101 % of control
dose: 6.0 mg/kg/injection, schedule: Q01DX009 (ip), vehicle: saline with Tween-80
  T/C: 99 % of control
dose: 12.0 mg/kg/injection, schedule: Q01DX009 (ip), vehicle: saline with Tween-80
  T/C: 100 % of control
dose: 12.5 mg/kg/injection, schedule: Q01DX009 (ip), vehicle: saline with Tween-80
  T/C: 88 % of control

## CCC(=O)NN(Cn1c(=S)sc2ccccc21)Cn1c(=S)sc2ccccc21
[7]
  T/C: 99 % of control
[8]
  T/C: 89 % of control
[9]
  T/C: 93 % of control

## O=C1C=C(NCc2ccccc2)CCC1
dose: 1.56 mg/kg/injection, schedule: Q01DX009 (ip), vehicle: saline
  T/C: 109 % of control
dose: 3.12 mg/kg/injection, schedule: Q01DX009 (ip), vehicle: saline
  T/C: 113 % of control
dose: 6.25 mg/kg/injection, schedule: Q01DX009 (ip), vehicle: saline
  T/C: 100 % of control

## c1cc2cc(-c3ccc4cc(C5=NCCN5)[nH]c4c3)[nH]c2cc1C1=NCCN1
dose: 25.0 mg/kg/injection, schedule: Q04DX003 (ip), vehicle: saline
  T/C: 108 % of control
dose: 50.0 mg/kg/injection, schedule: Q04DX003 (ip), vehicle: saline
  T/C: 116 % of control
dose: 200.0 mg/kg/injection, schedule: Q04DX003 (ip), vehicle: saline
  T/C: 184 % of control

## C=C1CC/C=C(\C)C(=O)C[C@@H]2[C@@H]1CC2(C)C
dose: 0.37 mg/kg/injection, schedule: Q01DX009 (ip), vehicle: saline + alcohol
  T/C: 106 % of control
dose: 0.75 mg/kg/injection, schedule: Q01DX009 (ip), vehicle: saline + alcohol
  T/C: 108 % of control
dose: 1.5 mg/kg/injection, schedule: Q01DX009 (ip), vehicle: saline + alcohol
  T/C: 106 % of control
dose: 3.0 mg/kg/injection, schedule: Q01DX009 (ip), vehicle: saline + alcohol
  T/C: 94 % of control
dose: 6.0 mg/kg/injection, schedule: Q01DX009 (ip), vehicle: saline + alcohol
  T/C: 98 % of control

## Cc1cc(C)c2nc(N/N=C/c3cccnc3)sc2c1
dose: 50.0 mg/kg/injection, schedule: Q01DX009 (ip), vehicle: Klucel (hydroxypropylcellulose) (HPC)
  T/C: 95 % of control
dose: 100.0 mg/kg/injection, schedule: Q01DX009 (ip), vehicle: Klucel (hydroxypropylcellulose) (HPC)
  T/C: 92 % of control
dose: 200.0 mg/kg/injection, schedule: Q01DX009 (ip), vehicle: Klucel (hydroxypropylcellulose) (HPC)
  T/C: 92 % of control

## CCCC[N+]1([O-])CCOCC1
dose: 50.0 mg/kg/injection, schedule: Q01DX009 (ip), vehicle: saline
  T/C: 104 % of control
dose: 100.0 mg/kg/injection, schedule: Q01DX009 (ip), vehicle: saline
  T/C: 100 % of control
dose: 200.0 mg/kg/injection, schedule: Q01DX009 (ip), vehicle: saline
  T/C: 107 % of control

## O=C(O)c1cnc2cc3c(cc2c1Nc1ccccc1)OCO3
[10]
  T/C: 99 % of control
[11]
  T/C: 102 % of control
[12]
  T/C: 90 % of control

## O=[N+]([O-])c1ccc(N/N=C(/C(=N/Nc2ccc([N+](=O)[O-])cc2)c2ccccc2)c2ccccc2)cc1
dose: 25.0 mg/kg/injection, schedule: Q01DX009 (ip), vehicle: other
  T/C: 87 % of control
dose: 50.0 mg/kg/injection, schedule: Q01DX009 (ip), vehicle: other
  T/C: 89 % of control
dose: 100.0 mg/kg/injection, schedule: Q01DX009 (ip), vehicle: other
  T/C: 93 % of control
dose: 100.0 mg/kg/injection, schedule: Q01DX009 (ip), vehicle: saline sonified
  T/C: 90 % of control
dose: 200.0 mg/kg/injection, schedule: Q01DX009 (ip), vehicle: other
  T/C: 93 % of control
dose: 200.0 mg/kg/injection, schedule: Q01DX009 (ip), vehicle: saline sonified
  T/C: 86 % of control
dose: 400.0 mg/kg/injection, schedule: Q01DX009 (ip), vehicle: other
  T/C: 93 % of control
dose: 400.0 mg/kg/injection, schedule: Q01DX009 (ip), vehicle: saline sonified
  T/C: 90 % of control

## CN(C)P(=O)(N(C)C)N1CCCCC1
[1]
  T/C: 97 % of control
[2]
  T/C: 114 % of control
[3]
  T/C: 100 % of control

## CC1(C)CCCC2(C)C1CCC1(C)OC3=CC(=O)C(O)=CC3=CC12 (configuration not stated)
[13]
  T/C: 100 % of control
[14]
  T/C: 112 % of control
[15]
  T/C: 119 % of control

## C(=C(\CCc1ccccn1)c1ccccn1)/c1cccnc1
dose: 100.0 mg/kg/injection, schedule: Q01DX001 (ip), vehicle: saline
  T/C: 100 % of control
dose: 200.0 mg/kg/injection, schedule: Q01DX001 (ip), vehicle: saline
  T/C: 101 % of control
dose: 400.0 mg/kg/injection, schedule: Q01DX001 (ip), vehicle: saline
  T/C: 104 % of control

## NC/C(=N\O)c1ccc2ccccc2c1
[10]
  T/C: 100 % of control
[11]
  T/C: 110 % of control
[12]
  T/C: 105 % of control

## COC1OCC2(C)OC(c3ccccc3)=NC2C1O (configuration not stated)
dose: 100.0 mg/kg/injection, schedule: Q04DX002 (ip), vehicle: Klucel (hydroxypropylcellulose) (HPC)
  T/C: 90 % of control
dose: 200.0 mg/kg/injection, schedule: Q04DX002 (ip), vehicle: Klucel (hydroxypropylcellulose) (HPC)
  T/C: 100 % of control

## COCCOCn1cccc1Cc1ccc(C)cc1
dose: 100.0 mg/kg/injection, schedule: Q01DX001 (ip), vehicle: distilled water + alcohol
  T/C: 100 % of control
dose: 200.0 mg/kg/injection, schedule: Q01DX001 (ip), vehicle: distilled water + alcohol
  T/C: 96 % of control
dose: 400.0 mg/kg/injection, schedule: Q01DX001 (ip), vehicle: distilled water + alcohol
  T/C: 99 % of control

## O=C(NC(=S)c1ccc(Br)cc1)Nc1ccccc1
dose: 2.5 mg/kg/injection, schedule: Q01DX009 (ip), vehicle: saline with Tween-80
  T/C: 90 % of control
dose: 5.0 mg/kg/injection, schedule: Q01DX009 (ip), vehicle: saline with Tween-80
  T/C: 103 % of control
dose: 10.0 mg/kg/injection, schedule: Q01DX009 (ip), vehicle: saline with Tween-80
  T/C: 88 % of control

## CC(=O)COc1ccccc1NC(C)=O
dose: 100.0 mg/kg/injection, schedule: Q04DX003 (ip), vehicle: saline with Tween-80
  T/C: 109 % of control
dose: 200.0 mg/kg/injection, schedule: Q04DX003 (ip), vehicle: saline with Tween-80
  T/C: 90 % of control
dose: 400.0 mg/kg/injection, schedule: Q04DX003 (ip), vehicle: saline with Tween-80
  T/C: 100 % of control

## C=CCOc1cc2c(cc1C(CC)c1ccc(OC)cc1)OCO2 (configuration not stated)
[7]
  T/C: 101 % of control
[8]
  T/C: 103 % of control
[9]
  T/C: 104 % of control

## O=C(Nc1ccccc1)Nc1ccc(OCc2ccccc2)cc1
[1]
  T/C: 90 % of control
[2]
  T/C: 88 % of control
[3]
  T/C: 114 % of control

## CC(=O)N(C)C(C(=O)N1CC(C)CC1C(=O)N(C)C1C(=O)NC(CC(C)C)C(=O)N2CC(C)CC2C(=O)NC(CC(C)C)C(=O)N(C)C(C(C)C)C(=O)N2CCCC2C(=O)N(C)C(CC(C)C)C(=O)NCC(=O)OC1C)C(C)C (configuration not stated)
dose: 3.12 mg/kg/injection, schedule: Q01DX009 (ip), vehicle: Klucel (hydroxypropylcellulose) (HPC)
  T/C: 103 % of control
[13]
  T/C: 97 % of control
[14]
  T/C: 100 % of control
dose: 18.75 mg/kg/injection, schedule: Q01DX009 (ip), vehicle: Klucel (hydroxypropylcellulose) (HPC)
  T/C: 93 % of control
[15]
  T/C: 93 % of control
